Values after ≈ are worked out from the molar mass of the structure shown. Active and inactive are the calls of the source. The rule behind the calls is not given here.
Columns and labels:
[1] = Clearance in ICR mouse at 1 mg/kg, iv; format: ADME, organism-based; conditions: in vivo
AGS = test: Antiproliferative activity against human AGS cells incubated for 48 hrs by SRB assay; format: functional, cell-based
[2] = AUC(0 to infinity) in ICR mouse at 1 mg/kg, iv; format: ADME, organism-based; set-up: dose 1 mg/kg, route iv; conditions: in vivo
MKN-45 [3] = test: Inhibition of epithelial mesenchymal transition in human MKN-45 cells assessed as downregulation in vimentin level by Western blotting analysis; format: functional, cell-based
[4] = AUC(0 to t) in ICR mouse at 10 mg/kg, po; format: ADME, organism-based; set-up: dose 10 mg/kg, route po; conditions: in vivo
Cytochrome P450 3A4 = Cytochrome P450 3A4 (Homo sapiens, UniProt P08684); test: Inhibition of CYP3A4 in human liver microsomes; format: ADME, Microsome
MKN-45 [5] = test: Antitumor activity against human MKN-45 cells xenografted in BALB/c mouse assessed as tumor growth inhibition at 30 mg/kg/day, ip measured every 3 days for 21 days; format: functional; conditions: MKN-45, 504 h, time 21 day, read-out: TGI
MKN-45 [6] = test: Inhibition of human MKN-45 cells colony formation incubated for 10 days by crystal violet staining based assay; format: functional, cell-based; conditions: dose 50-100 nM, time 10.0 day
[7] = Mean residence time in ICR mouse at 1 mg/kg, iv; format: ADME, organism-based; conditions: in vivo
MKN-45 [8] = test: Induction of apoptosis in human MKN-45 cells assessed as early apoptotic cells at 400 nM incubated for 48 hrs by Annexin V-FITC/PI staining based flow cytometry analysis (reference value: 0.5%); format: functional
[9] = molecular target: Voltage-gated inwardly rectifying potassium channel KCNH2 (Homo sapiens, UniProt Q12809); test: Inhibition of human ERG; format: toxicity
hERG (KCNH2) = hERG (KCNH2) (Homo sapiens, UniProt Q12809); test: Inhibition of human ERG at 40 uM relative to control; format: toxicity
[10] = AUC(0 to infinity) in ICR mouse at 10 mg/kg, po; format: ADME, organism-based; set-up: dose 10 mg/kg, route po; conditions: in vivo
[11] = Mean residence time in ICR mouse at 10 mg/kg, po; format: ADME, organism-based; conditions: in vivo
BXPC-3 = test: Antiproliferative activity against human BXPC-3 cells incubated for 48 hrs by SRB assay; format: functional, cell-based; conditions: BXPC-3, 48 h
MKN-45 [12] = test: Induction of apoptosis in human MKN-45 cells assessed as late apoptotic cells at 200 nM incubated for 48 hrs by Annexin V-FITC/PI staining based flow cytometry analysis (reference value: 2.6%); format: functional
BGC-823 = test: Antiproliferative activity against human BGC-823 cells incubated for 48 hrs by SRB assay; format: functional, cell-based; conditions: BGC-823, 48 h
[13] = Half life in ICR mouse at 10 mg/kg, po; format: ADME, organism-based; conditions: in vivo
SK-HEP1 = test: Antiproliferative activity against human SK-HEP1 cells incubated for 48 hrs by SRB assay; format: functional, cell-based; conditions: SK-HEP1, 48 h
[14] = Toxicity in BALB/c mouse assessed as change in lung morphology at 15 to 30 mg/kg, ip measured every 3 days for 21 days by HE staining based assay; format: organism-based; conditions: in vivo, 504 h, dose 15-30 mg/kg, time 21 day
Cytochrome P450 2C9 = Cytochrome P450 2C9 (Homo sapiens, UniProt P11712); test: Inhibition of CYP2C9 in human liver microsomes; format: ADME, Microsome
CYP1A = CYP1A (Homo sapiens, UniProt P04798+P05177); test: Inhibition of CYP1A in human liver microsomes; format: ADME, Microsome
MGC-803 [15] = test: Antiinvasive activity against human MGC-803 cells incubated for 24 hrs by crystal violet staining based inverted microscopic analysis; format: functional, cell-based
[16] = Oral bioavailability in ICR mouse at 10 mg/kg; format: ADME, organism-based; conditions: in vivo
[17] = Toxicity in BALB/c mouse assessed as change in heart morphology at 15 to 30 mg/kg, ip measured every 3 days for 21 days by HE staining based assay; format: organism-based; conditions: in vivo, 504 h, dose 15-30 mg/kg, time 21 day
MFC = test: Antiproliferative activity against MFC cells incubated for 48 hrs by SRB assay; format: functional, cell-based; conditions: Mus musculus
MKN-45 [18] = test: Induction of apoptosis in human MKN-45 cells assessed as early apoptotic cells at 800 nM incubated for 48 hrs by Annexin V-FITC/PI staining based flow cytometry analysis (reference value: 0.5%); format: functional
MKN-45 [19] = test: Antiproliferative activity against human MKN-45 cells incubated for 48 hrs by SRB assay; format: functional, cell-based; conditions: MKN-45, 48 h
MKN-45 [20] = test: Antiproliferative activity against MYOF knocked down human MKN-45 cells incubated for 48 hrs by SRB assay; format: functional, cell-based
[21] = Cmax in ICR mouse at 10 mg/kg, po; format: ADME, organism-based; set-up: dose 10 mg/kg, route po; conditions: in vivo
[22] = Aqueous solubility of compound in PBS at pH 2; format: physicochemical
MKN-45 [23] = test: Induction of apoptosis in human MKN-45 cells assessed as late apoptotic cells at 400 nM incubated for 48 hrs by Annexin V-FITC/PI staining based flow cytometry analysis (reference value: 2.6%); format: functional
[24] = Toxicity in BALB/c mouse assessed as change in spleen morphology at 15 to 30 mg/kg, ip measured every 3 days for 21 days by HE staining based assay; format: organism-based; conditions: in vivo, 504 h, dose 15-30 mg/kg, time 21 day
ES-2 = test: Antiproliferative activity against human ES2 cells incubated for 48 hrs by SRB assay; format: functional, cell-based; conditions: ES-2, 48 h
MKN-45 [25] = test: Antitumor activity against human MKN-45 cells xenografted in BALB/c mouse assessed as tumor growth inhibition at 15 mg/kg/day, ip measured every 3 days for 21 days; format: functional; conditions: MKN-45, 504 h, time 21 day, read-out: TGI
MKN-45 [26] = test: Inhibition of epithelial mesenchymal transition in human MKN-45 cells assessed as upregulation in E-cadherin level by Western blotting analysis; format: functional, cell-based; conditions: dose 100-400 nM
[27] = Volume of distribution at steady state in ICR mouse at 1 mg/kg, iv; format: ADME, organism-based; conditions: in vivo, read-out: Vdss
[28] = Aqueous solubility of compound in PBS at pH 9; format: physicochemical
[29] = Toxicity in BALB/c mouse assessed as change in body weight at 15 to 30 mg/kg, ip measured every 3 days for 21 days; format: organism-based; conditions: in vivo, 504 h, dose 15-30 mg/kg, time 21 day
[30] = Half life in ICR mouse at 1 mg/kg, iv; format: ADME, organism-based; conditions: in vivo
MGC-803 [31] = test: Antiproliferative activity against human MGC-803 cells incubated for 48 hrs by SRB assay; format: functional, cell-based; conditions: MGC-803, 48 h
[32] = Aqueous solubility of compound in PBS at pH 7.4; format: physicochemical
DU-145 = test: Antiproliferative activity against human DU-145 cells incubated for 48 hrs by SRB assay; format: functional, cell-based; conditions: DU-145, 48 h
Myoferlin = Myoferlin (Homo sapiens, UniProt Q9NZM1); test: Binding affinity to MYOF C2D (unknown origin) expressed in Escherichia coli BL21(DE3) by SPR analysis
MKN-45 [33] = test: Induction of apoptosis in human MKN-45 cells assessed as early apoptotic cells at 100 nM incubated for 48 hrs by Annexin V-FITC/PI staining based flow cytometry analysis (reference value: 0.5%); format: functional
[34] = Toxicity in BALB/c mouse assessed as change in kidney morphology at 15 to 30 mg/kg, ip measured every 3 days for 21 days by HE staining based assay; format: organism-based; conditions: in vivo, 504 h, dose 15-30 mg/kg, time 21 day
MKN-45 [35] = test: Induction of apoptosis in human MKN-45 cells assessed as late apoptotic cells at 800 nM incubated for 48 hrs by Annexin V-FITC/PI staining based flow cytometry analysis (reference value: 2.6%); format: functional

Chain of Cytochrome P450 2C9 (P11712 whole entry): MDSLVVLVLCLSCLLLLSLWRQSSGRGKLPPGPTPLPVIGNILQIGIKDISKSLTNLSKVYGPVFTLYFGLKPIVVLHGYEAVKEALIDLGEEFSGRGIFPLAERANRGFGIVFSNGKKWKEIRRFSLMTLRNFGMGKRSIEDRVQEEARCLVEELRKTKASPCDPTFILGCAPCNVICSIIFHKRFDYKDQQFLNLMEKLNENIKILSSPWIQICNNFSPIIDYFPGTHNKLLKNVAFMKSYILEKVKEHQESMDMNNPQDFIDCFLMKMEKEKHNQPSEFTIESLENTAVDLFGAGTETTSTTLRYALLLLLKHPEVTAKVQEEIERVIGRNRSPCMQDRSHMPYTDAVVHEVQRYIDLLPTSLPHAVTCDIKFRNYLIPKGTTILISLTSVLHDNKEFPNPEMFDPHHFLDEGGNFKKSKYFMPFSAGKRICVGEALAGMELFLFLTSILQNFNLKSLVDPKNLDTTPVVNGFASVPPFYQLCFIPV
Chain of Cytochrome P450 3A4 (P08684 whole entry): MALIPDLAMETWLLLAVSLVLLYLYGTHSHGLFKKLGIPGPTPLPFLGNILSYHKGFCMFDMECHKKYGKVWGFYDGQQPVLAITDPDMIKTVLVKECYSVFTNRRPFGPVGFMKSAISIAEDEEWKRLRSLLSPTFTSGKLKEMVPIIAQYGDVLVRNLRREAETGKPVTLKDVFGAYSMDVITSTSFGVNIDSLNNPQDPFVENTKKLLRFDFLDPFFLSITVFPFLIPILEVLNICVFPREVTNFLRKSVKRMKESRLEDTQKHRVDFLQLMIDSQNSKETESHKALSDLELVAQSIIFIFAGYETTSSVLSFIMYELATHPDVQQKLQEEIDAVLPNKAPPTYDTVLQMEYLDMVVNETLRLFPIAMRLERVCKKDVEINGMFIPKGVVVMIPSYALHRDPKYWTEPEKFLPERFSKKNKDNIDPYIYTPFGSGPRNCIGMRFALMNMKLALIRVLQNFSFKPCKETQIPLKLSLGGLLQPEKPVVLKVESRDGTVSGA
Chain of Voltage-gated inwardly rectifying potassium channel KCNH2 (Q12809 whole entry): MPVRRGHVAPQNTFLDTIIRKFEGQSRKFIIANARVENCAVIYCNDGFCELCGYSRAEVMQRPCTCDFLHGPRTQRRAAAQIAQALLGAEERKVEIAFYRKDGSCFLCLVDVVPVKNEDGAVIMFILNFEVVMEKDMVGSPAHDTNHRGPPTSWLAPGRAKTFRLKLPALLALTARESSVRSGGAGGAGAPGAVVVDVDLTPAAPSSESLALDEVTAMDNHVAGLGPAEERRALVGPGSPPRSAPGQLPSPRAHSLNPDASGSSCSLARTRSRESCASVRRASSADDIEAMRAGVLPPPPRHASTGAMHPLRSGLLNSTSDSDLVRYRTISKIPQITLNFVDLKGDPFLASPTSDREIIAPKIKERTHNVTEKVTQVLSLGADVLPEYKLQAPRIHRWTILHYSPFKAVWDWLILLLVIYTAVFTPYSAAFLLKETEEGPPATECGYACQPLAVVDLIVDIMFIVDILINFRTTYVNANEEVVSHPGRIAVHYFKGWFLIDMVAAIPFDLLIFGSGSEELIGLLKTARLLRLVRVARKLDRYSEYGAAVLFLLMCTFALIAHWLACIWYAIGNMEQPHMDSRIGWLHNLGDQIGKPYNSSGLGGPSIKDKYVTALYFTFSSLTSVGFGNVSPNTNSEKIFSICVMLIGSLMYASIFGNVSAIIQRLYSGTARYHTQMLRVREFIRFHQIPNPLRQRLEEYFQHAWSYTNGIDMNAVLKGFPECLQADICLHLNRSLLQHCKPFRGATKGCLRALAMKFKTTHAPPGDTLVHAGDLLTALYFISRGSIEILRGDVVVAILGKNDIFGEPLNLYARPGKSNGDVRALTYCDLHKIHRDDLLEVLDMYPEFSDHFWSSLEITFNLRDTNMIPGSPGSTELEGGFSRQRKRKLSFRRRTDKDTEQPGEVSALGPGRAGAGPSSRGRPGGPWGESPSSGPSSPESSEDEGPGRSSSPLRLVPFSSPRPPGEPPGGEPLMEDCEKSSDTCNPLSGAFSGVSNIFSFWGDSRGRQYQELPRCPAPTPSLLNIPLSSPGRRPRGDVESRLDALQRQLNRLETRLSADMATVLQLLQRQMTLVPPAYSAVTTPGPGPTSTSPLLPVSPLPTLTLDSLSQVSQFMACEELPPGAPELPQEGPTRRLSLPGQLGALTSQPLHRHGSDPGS
Chain of hERG (KCNH2) (Q12809 whole entry): as above

clearance [1]: 22 mL/min/kg | IC50 (AGS): 0.46 µM | AUC(0-inf) [2]: 762 ng·h/mL | AUC(0-t) [4]: 4920 ng·h/mL | IC50 (Cytochrome P450 3A4): 35.1 µM | MRT [7]: 17.2 min | AUC(0-inf) [10]: 4940 ng·h/mL | MRT [11]: 40.3 min | IC50 (BXPC-3): 0.13 µM | IC50 (BGC-823): 0.29 µM | half-life [13]: 38.4 min | IC50 (SK-HEP1): 0.75 µM | IC50 (Cytochrome P450 2C9): 14.7 µM | IC50 (CYP1A): > 50 µM | IC50 (MGC-803 [15]; MGC-803, 24 h): 0.06 µM | bioavailability [16]: 65.5% | IC50 (MKN-45 [19]): 0.14 µM | Cmax [21]: 5820 ng/mL | solubility [22]: 1310 µM (≈ 582 µg/mL) | Vd [27]: 0.377 L/kg | solubility [28]: 258 µM (≈ 115 µg/mL) | half-life [30]: 13.2 min | IC50 (MGC-803 [31]): 0.16 µM | solubility [32]: 272 µM (≈ 121 µg/mL) | IC50 (DU-145): > 10 µM | Kd (Myoferlin): 0.17 µM
Compound: CCc1nc(-c2ccc(OC)cc2)n(-c2cccc(C(=O)NCCCCn3nccn3)c2)n1
inhibition (MKN-45 [3]): Dose-Dependent Effect | inhibition in vivo at 30 mg/kg/day (MKN-45 [5]): 68.5% | inhibition (MKN-45 [6]): Dose-Dependent Effect | Activity (MKN-45 [8]): 12.6% | IC50 [9]: > 40 µM | inhibition at 40 µM (hERG (KCNH2)): 46.6% | Activity (MKN-45 [12]): 4.7% | Activity [14]: Non-Toxic | Activity (MGC-803 [15]): Dose-Dependent Effect | Activity [17]: Non-Toxic | IC50 (MFC): > 10 µM | Activity (MKN-45 [18]): 13.4% | Activity (MKN-45 [20]): inactive | Activity (MKN-45 [23]): 37.6% | Activity [24]: Non-Toxic | IC50 (ES-2): 0.28 µM | inhibition in vivo at 15 mg/kg/day (MKN-45 [25]): 55.1% | inhibition (MKN-45 [26]): Dose-Dependent Effect | Activity [29]: Non-Toxic | Activity (MKN-45 [33]): 0.6% | Activity [34]: Non-Toxic | Activity (MKN-45 [35]): 40.6%
